Source: patent EP1935887A1, “Heterocyclic substituted carbonyl derivatives and their use as dopamine D3 receptor ligands” (Aventis Pharmaceuticals Inc., priority 2001, dated 2002)

Target: T1, CLONED HUMAN ALPHA-1A ADRENERGIC RECEPTORS (α1a) (Homo sapiens, UniProt P35348)
T1 construct: expressed in transfected cells; host or cells: CHO cells, G418-resistant clone #7, vector pcDNA3; membranes
T1 sequence (P35348 1-466): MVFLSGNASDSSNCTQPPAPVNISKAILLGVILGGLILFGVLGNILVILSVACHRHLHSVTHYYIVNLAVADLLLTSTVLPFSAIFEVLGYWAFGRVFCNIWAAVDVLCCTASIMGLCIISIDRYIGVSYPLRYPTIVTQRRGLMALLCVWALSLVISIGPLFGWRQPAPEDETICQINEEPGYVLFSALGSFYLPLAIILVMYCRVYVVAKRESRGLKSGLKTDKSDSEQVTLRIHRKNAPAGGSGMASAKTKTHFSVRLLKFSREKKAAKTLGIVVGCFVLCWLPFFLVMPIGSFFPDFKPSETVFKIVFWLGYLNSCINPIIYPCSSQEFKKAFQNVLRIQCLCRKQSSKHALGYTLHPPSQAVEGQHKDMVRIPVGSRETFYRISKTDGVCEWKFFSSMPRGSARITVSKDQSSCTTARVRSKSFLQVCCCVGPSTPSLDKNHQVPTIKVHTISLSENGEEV
Experiment: [3H]Prazosin binding to cloned human alpha-1A adrenergic receptors expressed in CHO cells
Source text: ^3H]PRAZOSIN BINDING TO CLONED HUMAN ALPHA-1A ADRENERGIC RECEPTORS (α1a) EXPRESSED IN CHINESE HAMSTER OVARY CELLS (CHO)
• purpose: This in vitro assay is designed as a screen to identify compounds displaying a affinity for the human α1a adrenoceptor subtype expressed in the membrane fragments of CHO cells. The assay measures the ability of the test compounds to displace [^3H] prazosin from α1a sites. The identification of multiple vascular α1-addrenoceptors (α1a, α1b, α1d) in vitro has provided impetus to define the role(s) of these subtypes in cardiovascular regulation in vivo (Vargas and Gorman, 1995). […] Therefore, the binding of compounds to α1a adrenergic receptors is believed to be a good measure of a compound's potential to cause orthostatic hypotension and sedation as side effects. Prazosin is a potent antagonist of the human α1a-adrenoceptor subtype, which has been cloned and is expressed in the membrane fragments of CHO cells. • hα1areceptor: The cloning of the human α1a cDNA was accomplished first by screening a human prostate cDNA library (Clontech), from which a portion of the coding region was obtained. This DNA fragment was then used to screen a human leukocyte genomic library (Clontech), and the rest of the coding sequence was obtained. Later these two fragments were spliced together. The entire coding sequence was then fully sequenced including matching PCR sequence with original genomic coding sequence, thus ensuring splice sites were joined correctly (Schwinn et al., 1995). Once sequenced, the gene was subcloned into the expression vector pcDNA3 (Invitrogen). Plasmid DNA was then used for transfection into CHO cells and G418 resistant clones were isolated. A clone expressing high levels of the hα1a receptor (as determined by mRNA and receptor binding data) was chosen and pharmacologically characterized. • Culture Media: Media Ingredients for Adherent α1a expressing CHO Culture: • A. HAM's F-12 (Cellgro) • B. 10% 0.2 micron filtered Fetal Bovine Serum (FBS)(Cellgro) • C. 1% 0.2 micron filtered Penicillin-Streptomycin (Cellgro) • D. G418 0.2 micron filtered (Geneticin 400µg/ml)(Cellgro) Cells are cultured using established methods and procedures in either 150x25mm culture plates (scale up to 100 plates) or a combination of these plates and 70 roller bottles. One culturing/harvest cycle typically requires 2 weeks and yields between 100-400mg protein. Plates or bottles are incubated at 37°C + 5% CO2. • Storage: Cells are harvested by mechanical scraping, washed using PBS, collected in 250ml Corning polypropylene centrifuge tubes, spun down (1500RPM) and resuspended in dH2O 10% DMSO (final volume per harvest is approximately 50ml). Protein determination is made using the Biorad DC Assay Kit. […] Bd. = 50µl 10µM phentolamine+50 µl [^3H]prazosin+100µl membrane Test Cpd. = 50µl compound + 50µl [^3H]prazosin + 100µl membrane Compounds to be evaluated are weighed out to yield a 10 mM stock solution in DMSO in a 24 well polystyrene plate. This is diluted to a 0.5 mM stock in dH2O. Serial dilutions in Buffer A are made from which 50 µl additions to the plate are made in duplicate in order to achieve the final concentrations desired. Typically, one 96 well plate is used to evaluate 11 compounds at 4 concentrations (10^-6-10^-9 M) in duplicate. Total binding and nonspecific binding are determined in quadruplicate. Usually one standard is run with each assay. [^3H]Prazosin is made up in Buffer A such that when 50 µl are added per well the final concentration is 1.0 nM in a final assay volume of 200 µl. The final concentration should be verified by running a sample in a scintillation counter prior to adding the [^3H]prazosin to the 96 well plate. Note: The radioactivity should be prepared just before the additions are made so that it is not allowed to sit on the bench for very long. […]

SMILES	halpha1 % I h=human (@ 1 uM) [% Inh @ 1 uM]	also measured
C[C@H]1CC[C@H](NC(=O)CCCN2CCN(c3csc4cc(C(F)(F)F)ccc34)CC2)CC1 [compound 826804]	32.8	
CCOC(=O)[C@H]1CC[C@H](NC(=O)CCCN2CCN(c3csc4cc(C(F)(F)F)ccc34)CC2)CC1 [compound 826805]	27.8	
CC[C@H]1CC[C@H](NC(=O)CCCN2CCN(c3csc4cc(C(F)(F)F)ccc34)CC2)CC1 [compound 826806]	10.3	
CCN(C(=O)CCCN1CCN(c2csc3cc(C(F)(F)F)ccc23)CC1)C1CCCCC1 [compound 826809]	30.5	
CC1(C)CCCN(C(=O)CCCN2CCN(c3csc4cc(C(F)(F)F)ccc34)CC2)C1 [compound 826817]	44.4	
O=C(CCCN1CCN(c2csc3cc(C(F)(F)F)ccc23)CC1)NC1CCCCC1 [compound 826821]		halpha1 % I h=human (@ 0.1 nM): 24% Inh @ 0.1 nM
CC1CCCN(C(=O)CCCN2CCN(c3csc4cc(F)ccc34)CC2)C1 (stereo not shown) [compound 826855]		Ki (human alpha-1 receptor, read-out: halpha1Ki (nM) h=human): 0.689 nM
